{"source": "paper PMC3144219", "about": "“Identification of Inhibitors against Mycobacterium tuberculosis Thiamin Phosphate Synthase, an Important Target for the Development of Anti-TB Drugs” (PLoS ONE, 2011)", "key": {"M.tuberculosis H37Rv": {"tested_on": "M.tuberculosis H37Rv", "assay": "MIC99 determination in broth culture with CFU plating", "type": "cell-based", "conditions": "7 days, 99% inhibition of growth; for MIC99: Mycobacterium tuberculosis, H37RV, 168 h"}, "M.smegmatis mc^2155": {"tested_on": "M.smegmatis mc^2155", "assay": "MIC99 determination, broth macrodilution with CFU plating", "type": "cell-based", "conditions": "for inhibition of M.smegmatis growth: at (up to) 750 µg/ml; for MIC99 for M.smegmatis: 24 hours, 99% inhibition of growth"}, "[1]": {"molecular_target": "T1, M.tuberculosis thiamin phosphate synthase (MtTPS) (Mycobacterium tuberculosis, UniProt P9WG75)", "T1 sequence (P9WG75 whole entry, looked up)": "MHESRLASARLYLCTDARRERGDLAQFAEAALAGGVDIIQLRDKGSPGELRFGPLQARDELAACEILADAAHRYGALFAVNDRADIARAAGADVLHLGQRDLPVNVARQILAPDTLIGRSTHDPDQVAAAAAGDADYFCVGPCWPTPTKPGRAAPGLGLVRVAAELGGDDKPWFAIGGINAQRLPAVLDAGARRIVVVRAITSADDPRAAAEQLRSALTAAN", "assay": "biochemical", "conditions": "for inhibition at 100 µg/mL: read-out: percent inhibition of MtTPS activity"}, "[2]": {"molecular_target": "T1, M.tuberculosis thiamin phosphate synthase (MtTPS)"}, "Cc1ncsc1CCO": {"tested_on": "Cc1ncsc1CCO", "assay": "purified protein, by the assay type", "conditions": "pH 7.5; 37.0 °C"}}, "note": "Read-outs that look alike come from different tables or passages of the source.", "data": [{"compound": "CCN(CC)c1nc(Cl)nc(Nc2ccc3cc(-c4ccccc4)c(=O)oc3c2)n1", "note": "[Compound 35, Coumarin, 7-[[4-chloro-6-(diethylamino)-s-triazin-2-yl]amino]-3-phenyl-]", "values": [{"measurement": "MIC99", "setting": "M.tuberculosis H37Rv", "result": 125, "unit": "µg/mL"}, {"measurement": "inhibition of M.smegmatis growth", "setting": "M.smegmatis mc^2155", "result": "No inhibition"}, {"measurement": "IC50", "setting": "[1]", "result": "> 237", "unit": "µM"}, {"measurement": "inhibition at 100 µg/mL", "setting": "[1]", "result": "> 20", "unit": "%"}]}, {"compound": "Cc1cc(O)c(C(C)C)cc1N=Cc1cc([N+](=O)[O-])ccc1O", "note": "[Compound 9, 4-{[(2-hydroxy-5-nitrophenyl)methylidene]amino}-5-methyl-2-(propan-2-yl)phenol]", "values": [{"measurement": "MIC99", "setting": "M.tuberculosis H37Rv", "result": 6, "unit": "µg/mL"}, {"measurement": "mode of inhibition of MtTPS", "setting": "[2]", "result": "competing with HMP-PP"}, {"measurement": "inhibition of M.smegmatis growth", "setting": "M.smegmatis mc^2155", "result": 32, "unit": "% inhibition at 750 µg/ml"}, {"measurement": "IC50", "setting": "[1]", "result": 108, "unit": "µM"}, {"measurement": "inhibition at 100 µg/mL", "setting": "[1]", "result": "> 20", "unit": "%"}]}, {"compound": "M.tuberculosis thiamin phosphate synthase (MtTPS) (Mycobacterium tuberculosis H37Rv)", "values": [{"measurement": "Km", "setting": "Cc1ncsc1CCO", "result": 14, "unit": "µM"}]}, {"compound": "CN1[C@@H]2CC[C@H]1CC(OC(c1ccccc1)c1ccccc1)C2.CS(=O)(=O)O", "note": "(stereo partly drawn) [Compound 11, 3-benzhydryloxy-8-methyl-8-azab icyclo [3.2.1]octane;methanesulfonic acid]", "values": [{"measurement": "MIC99 for M.tuberculosis", "setting": "M.tuberculosis H37Rv", "result": 250, "unit": "µg/mL"}, {"measurement": "MIC99 for M.smegmatis", "setting": "M.smegmatis mc^2155", "result": 125, "unit": "µg/mL"}]}, {"compound": "c1ccc(CSc2nnc3c4ccccc4c4ccccc4c3n2)cc1", "note": "[Compound 33, 3-benzylsulfanyl phenanthro[9,10-e][1,2,4]triazine]", "values": [{"measurement": "MIC99 for M.tuberculosis", "setting": "M.tuberculosis H37Rv", "result": 162.5, "unit": "µg/mL"}, {"measurement": "IC50", "setting": "[2]", "result": 100, "unit": "µ/ml"}, {"measurement": "percent inhibition of MtTPS activity", "setting": "[2]", "result": "greater than 20%"}, {"measurement": "MIC99 for M.smegmatis", "setting": "M.smegmatis mc^2155", "result": 150, "unit": "µg/mL"}]}, {"compound": "O=C(Nc1cccc([N+](=O)[O-])c1)c1ccc2ccccc2c1O", "note": "[Compound 12, 1-hydroxy-(3-nitrophenyl) naphthalene-2-carboxamide]", "values": [{"measurement": "IC50", "setting": "[2]", "result": 100, "unit": "µ/ml"}, {"measurement": "percent inhibition of MtTPS activity", "setting": "[2]", "result": "greater than 20%"}, {"measurement": "inhibition of M.smegmatis growth", "setting": "M.smegmatis mc^2155", "result": 45, "unit": "% inhibition at 750 µg/ml"}]}, {"compound": "O=C(Nc1cccc([N+](=O)[O-])c1)c1cc2ccccc2cc1O", "note": "[Compound 10, Naphtazol B]", "values": [{"measurement": "MIC99 for M.tuberculosis", "setting": "M.tuberculosis H37Rv", "result": 750, "unit": "µg/mL"}, {"measurement": "inhibition of M.smegmatis growth", "setting": "M.smegmatis mc^2155", "result": "No inhibition"}]}]}
